Values quoted from earlier work, collected in patent publication US6693094B2, “Biguanide and sulfonylurea formulations for the prevention and treatment of insulin resistance and type 2 diabetes mellitus” (Chrono RX LLC, priority 2001, dated 2004).

Columns and labels:
[1] = in vivo
[2] = in vivo; remark: listed apart in the source
sulfonylurea receptor = sulfonylurea receptor (Homo sapiens, UniProt Q09428); details: sulfonylurea receptors of the β-cell membrane
[3] = in vivo; remark: listed apart in the source
[4] = tested on: insulin secreting β-cells; details: hyperglycemic conditions
[5] = tested on: patients with essential hypertension and coronary artery disease; details: 60 mg twice daily for 8 weeks, oral
pancreatic islets = details: islets exposed to IL-1 beta
[6] = tested on: insulin-resistant type 2 diabetes patients
[7] = tested on: obese type 2 diabetes patients; details: 600 mg/day, used alone

Chain of sulfonylurea receptor (Q09428 whole entry): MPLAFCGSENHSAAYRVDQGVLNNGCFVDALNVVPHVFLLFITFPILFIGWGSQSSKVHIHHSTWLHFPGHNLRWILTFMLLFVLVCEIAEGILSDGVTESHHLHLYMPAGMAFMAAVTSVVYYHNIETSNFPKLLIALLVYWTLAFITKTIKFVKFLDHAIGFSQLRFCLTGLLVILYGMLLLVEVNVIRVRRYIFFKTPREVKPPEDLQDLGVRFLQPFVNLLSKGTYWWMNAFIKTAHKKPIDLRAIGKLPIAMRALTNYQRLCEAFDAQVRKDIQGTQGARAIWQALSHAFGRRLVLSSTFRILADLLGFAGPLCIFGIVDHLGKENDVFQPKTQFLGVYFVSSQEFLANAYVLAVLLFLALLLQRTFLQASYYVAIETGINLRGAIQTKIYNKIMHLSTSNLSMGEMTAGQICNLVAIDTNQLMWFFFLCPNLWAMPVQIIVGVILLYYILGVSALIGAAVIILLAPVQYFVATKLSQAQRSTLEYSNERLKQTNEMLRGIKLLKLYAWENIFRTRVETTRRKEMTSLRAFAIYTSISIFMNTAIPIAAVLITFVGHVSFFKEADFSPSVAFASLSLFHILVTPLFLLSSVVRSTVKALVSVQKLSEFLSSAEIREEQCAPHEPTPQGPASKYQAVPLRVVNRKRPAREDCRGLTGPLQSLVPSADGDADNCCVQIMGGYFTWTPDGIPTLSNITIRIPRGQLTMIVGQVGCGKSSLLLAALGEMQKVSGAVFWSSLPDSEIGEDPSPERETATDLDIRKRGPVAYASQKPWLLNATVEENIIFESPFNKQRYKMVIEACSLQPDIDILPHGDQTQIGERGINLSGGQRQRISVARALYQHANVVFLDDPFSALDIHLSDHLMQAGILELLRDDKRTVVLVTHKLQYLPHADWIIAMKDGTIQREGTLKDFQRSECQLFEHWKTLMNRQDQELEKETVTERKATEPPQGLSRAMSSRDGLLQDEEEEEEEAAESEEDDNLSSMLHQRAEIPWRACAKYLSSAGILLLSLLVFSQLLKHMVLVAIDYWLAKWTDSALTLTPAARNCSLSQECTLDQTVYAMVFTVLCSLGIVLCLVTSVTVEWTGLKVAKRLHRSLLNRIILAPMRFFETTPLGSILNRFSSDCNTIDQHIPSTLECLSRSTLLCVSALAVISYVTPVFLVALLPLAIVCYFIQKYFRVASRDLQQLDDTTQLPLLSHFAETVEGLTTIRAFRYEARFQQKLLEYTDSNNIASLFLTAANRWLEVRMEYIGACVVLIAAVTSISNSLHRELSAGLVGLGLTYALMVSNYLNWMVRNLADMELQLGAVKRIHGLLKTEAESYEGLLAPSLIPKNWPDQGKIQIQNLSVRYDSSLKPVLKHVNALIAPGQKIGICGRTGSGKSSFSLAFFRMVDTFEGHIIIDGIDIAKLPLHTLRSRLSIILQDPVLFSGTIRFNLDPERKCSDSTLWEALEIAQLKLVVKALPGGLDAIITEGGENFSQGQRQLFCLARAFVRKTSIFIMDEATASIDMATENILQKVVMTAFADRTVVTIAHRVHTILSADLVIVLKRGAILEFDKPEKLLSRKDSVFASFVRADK
Chain of sulfonylurea receptor (Q14654 whole entry partner): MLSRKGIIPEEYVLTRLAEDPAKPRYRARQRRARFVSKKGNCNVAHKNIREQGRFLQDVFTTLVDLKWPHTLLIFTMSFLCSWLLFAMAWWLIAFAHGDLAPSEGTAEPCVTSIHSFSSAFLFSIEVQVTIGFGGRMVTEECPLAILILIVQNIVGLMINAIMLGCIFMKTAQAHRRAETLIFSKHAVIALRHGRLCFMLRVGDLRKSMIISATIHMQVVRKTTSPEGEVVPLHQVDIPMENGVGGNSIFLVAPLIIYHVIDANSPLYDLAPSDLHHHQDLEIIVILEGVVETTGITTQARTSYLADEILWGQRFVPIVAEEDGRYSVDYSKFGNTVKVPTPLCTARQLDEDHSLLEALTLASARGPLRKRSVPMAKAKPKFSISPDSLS

Compound: CC(=O)c1ccc(S(=O)(=O)NC(=O)NC2CCCCC2)cc1 [Acetohexamide]
- Duration of Action [1]: 12 to 18 h

Compound: CCCNC(=O)NS(=O)(=O)c1ccc(Cl)cc1 [Chlorpropamide]
- Duration of Action [1]: 60 h

Compound: [Cr] [Cr, Chromium]
- reduction of metformin requirements [2]: more than one-half

Compound: CCC1=C(C)CN(C(=O)NCCc2ccc(S(=O)(=O)NC(=O)N[C@H]3CC[C@H](C)CC3)cc2)C1=O [Glimepiride]
- Duration of Action [1]: 16 to 24 h

Compound: Cc1cnc(C(=O)NCCc2ccc(S(=O)(=O)NC(=O)NC3CCCCC3)cc2)cn1 [Glipizide]
- Duration of Action [1]: 12 to 24 h
- concentration range that saturates receptors (sulfonylurea receptor): low nM

Compound: COc1ccc(Cl)cc1C(=O)NCCc1ccc(S(=O)(=O)NC(=O)NC2CCCCC2)cc1 [Glyburide]
- glycolytic flux and lactate production (perfused rat hearts): dramatic increase

Compound: CN(C)C(=N)N=C(N)N [Metformin, metformin]
- frequency of lactic acidosis [3]: 3 cases per 100,000 patient-years
- incidence of lactic acidosis [3]: 0.03 /1,000 patient-years exposure

Compound: CCCCNC(=O)NS(=O)(=O)c1ccc(C)cc1 [Tolbutamide]
- Duration of Action [1]: 6 to 12 h

Compound: O=C1O[C@H]([C@@H](O)CO)C(O)=C1O [ascorbate, ascorbic acid]
- decrease of cellular insulin glycation [4]: 66-80%

Compound: COC1=C(OC)C(=O)C(C/C=C(\C)CC/C=C(\C)CC/C=C(\C)CC/C=C(\C)CC/C=C(\C)CC/C=C(\C)CC/C=C(\C)CC/C=C(\C)CC/C=C(\C)CCC=C(C)C)=C(C)C1=O [coenzyme Q10, Ubiquinone]
- HDL-cholesterol [5]: increased
- systolic and diastolic blood pressure, fasting and 2-h plasma insulin, glucose, triglycerides, lipid peroxides, malondialdehyde and diene conjugates [5]: all reduced

Compound: NC(=O)c1cccnc1 [nicotinamide, Nicotinamide]
- concentration of maximum recovery of glucose-induced insulin secretion (pancreatic islets): 25 mmol/L

Compound: O=S(=O)([O-])[O-].[O]=[V+2] [vanadyl sulfate]
- time effects are sustained after discontinuation ([6]; 100 mg/day for 3 weeks): up to 2 weeks
- hepatic and peripheral insulin sensitivity ([6]; 100 mg/day, after 3 weeks): appear to improve

Compound: vitamin E
- insulin efficiency and fibrinolysis [7]: may further worsen insulin efficiency and increase fibrinolysis
